In US20110033488A1, “AGENTS AND METHODS FOR TREATMENT OF ANXIETY DISORDERS” (Yeda Research and Development Co. Ltd., priority 2008, published 2011):
Peptide text beside a SMILES is read from it.

Assays:
[1] = test system: ICAM-1 on choroid plexus cells (ECACC # 00031626); assay: ICAM-1 expression on choroid plexus cell line; assay type: cell-based, rat; conditions: for ICAM-1 expression: 24 hrs
Method: (iv) Choroid Plexus endothelial cell culture. RCP cells (ECACC # 00031626, a kind gift from Dr. A. Chen, Weizmann Institute) (Battle et al., 2000) were cultured at 37° C. under 95% air/5% CO2 in DMEM medium containing 10% FCS, 100 U/ml penicillin, […], 1% insulin-transferrin-selenium mix (Sigma-Aldrich) and 0.1% Epidermal Growth Factor ([…]). The culture medium was changed every 2 days.
CPx cultures grown on cover slips were washed with PBS, and fixed as described above. The fixed cells were then treated with a blocking solution containing 10% FCS, 2% bovine serum albumin, 1% glycine, and 0.1% Triton X-100 (Sigma-Aldrich), and stained with hamster anti-mouse CD54 (ICAM-1) (Chemicon).

mice = conditions: one immunization with 100 μg peptide, without pertussis toxin
[2] = all concentrations tested (1-100 ng/ml)

C[C@]12C[C@H](O)[C@H]3[C@@H](CCC4=CC(=O)CC[C@@]43C)[C@@H]1CC[C@@H]2C(=O)CO [corticosterone, reference compound]
Concentration of peak ICAM-1 expression ([1]; 24 hrs incubation): 1 ng/mL | ICAM-1 expression ([1]; higher doses 20 ng/ml and 50 ng/ml): significantly inhibited | ICAM-1 expression ([1]; lower doses 1 ng/ml and 5 ng/ml): significantly elevated

CSCC[C@H](N)C(=O)N[C@@H](CCC(=O)O)C(=O)N[C@H](C(=O)NCC(=O)N[C@@H](Cc1c[nH]c2ccccc12)C(=O)N[C@@H](Cc1ccc(O)cc1)C(=O)N[C@@H](CCCNC(=N)N)C(=O)N[C@@H](CO)C(=O)N1CCC[C@H]1C(=O)N[C@@H](Cc1ccccc1)C(=O)N[C@@H](CO)C(=O)N[C@@H](CCCNC(=N)N)C(=O)N[C@H](C(=O)N[C@H](C(=O)N[C@@H](Cc1c[nH]cn1)C(=O)N[C@@H](CC(C)C)C(=O)N[C@@H](Cc1ccc(O)cc1)C(=O)N[C@@H](CCCNC(=N)N)C(=O)N[C@@H](CC(N)=O)C(=O)NCC(=O)N[C@@H](CCCCN)C(=O)O)C(C)C)C(C)C)C(C)C [pMOG35-55] (H-MEVGWYRSPFSRVVHLYRNGK-OH; N-terminus and C-terminus assumed)
Induction of EAE (mice): no EAE was induced

IFN-γ: cytokine
ICAM-1 expression ([1]; higher concentrations): significant inhibition | ICAM-1 expression ([1]; lower concentrations (1 ng and 10 ng)): inactive

IL-6: cytokine
ICAM-1 expression [1, 2]: no effect

TNF-α
ICAM-1 expression [1, 2]: significant elevation

B1: IL-10: cytokine (protein, UniProt P22301 19-178, looked up)
Interleukin-10: SPGQGTQSENSCTHFPGNLPNMLRDLRDAFSRVKTFFQMKDQLDNLLLKESLLEDFKGYLGCQALSEMIQFYLEEVMPQAENQDPDIKAHVNSLGENLKTLRLRLRRCHRFLPCENKSKAVEQVKNAFNKLQEKGIYKAMSEFDIFINYIEAYMTMKIRN
ICAM-1 expression [1, 2]: significantly reduced
